Several values for one entry are separate records, joined by “and”; a condition that tells them apart may be missing. Identical values can stand only once.
Columns and labels:
[1] = Health-related quality of life and symptom assessment in MS patients (MS-modified MOS-HIV, PGWB, MS Symptom Checklist); format: in vivo, human
Excerpt: To evaluate the impact of drug-related change on overall health and symptom burden, MS patients were followed routinely with both recognized and newly developed health-related quality of life instruments: an MS-modified version of the 30-item Medical Outcomes Study-HIV Survey (MOS-HIV) originally developed by Dr. Albert Wu, the 22-item Psychological General Well-Being Schedule (PGWB) developed by Dr. Harold Dupuy, and the MS Symptom Checklist developed for this study. These instruments, of which the first two have previously been validated and shown to be responsive to change in other disease states, allow quantitation of self-reported symptom variation (see Brook et al., Medical Care 17(7 Suppl.) 1-54 (1979), Fazio "A Concurrent Validation Survey of the NCHS General Well-Being Schedule", US Dept of Health, Education and Welfare, National Center for Health Statistics, Hyattsville, Maryland, USA 1977, McDowell and Newell "Measuring Health: A Guide to Rating Scales and Questionnaires", Oxford University Press 1987, Stewart et al., Medical Care 26 724-35 (1988), JAMA 262 907-13 (1989), and "Measuring Functioning and Well-Being of Patients with Chronic Conditions: The Medical Outcomes Study Approach", Duke University Press 1992, Wachtel et al., Ann. Int. Med. 116 129-137 (1992), Ware et al., "Conceptualization and Measurement of Health for Adults in the Health Insurance Survey, Vol III: Mental Health", Rand Corporation 1979, and Wu et al., Medical Care 29(8) 786-98 (1991)).
Given the small number of patients involved in this report, some of whom received Peptide T in an on-off-on design, it would not be expected that statistical significance might be obtained. To facilitate establishment of any trends, three patients who stopped taking Peptide T and then restarted the drug some weeks later after a new baseline period appear twice in the following analysis. In this manner, 8 baseline and repeated measures (at weeks 0, 4, 8, and 12) were defined and analysed using two-tailed paired t-tests: see Table XIV.

human neutrophils = test: TNF-induced neutrophil chemiluminescence (lucigenin-dependent); format: cell-based; settings: Figure 10
Method: Neutrophils. Neutrophils were isolated from whole blood from healthy blood donors. Separation was achieved by the rapid-single-step method of centrifugation of whole blood on FICOLL-HYPAQUE™. These were >99% viable and usually >98% pure.
Peptides and TNF. TNF was a recombinant product produced in E. coli. Peptide T and analogue 505 (D-Ser-Ser-D-Thr-Thr-D-Thr-Thr-Tyr-D-Thr) were resuspended in Hank's Balanced Salt Solution (HBSS).
To 100µl of 500-1000U/ml of TNF was added 10µl of peptide and after 5 min 100µl of 1x10^7 neutrophils/ml was added. The cells further incubated at 37°C/20 min and then tested for chemiluminescence activity. In some cases an agonist such as fMLP (10^-7M) was added. Chemiluminescence was measured in a luminometer (LKB). The results for Peptide T are presented in Figure 12 as peak rate of CL release. Lucigenin-dependent chemiluminescence was measured: this represents superoxide measurement. In another set of experiments the effects of analogue 505 on the LPS-induced neutrophil chemiluminescence were examined. In this case the LPS was essentially substituted for the TNF. The concentration of LPS was 0.005µg/ml.

PBMC [2] = format: cell-based, human
[3] = Pharmacokinetics of Peptide T in vivo; settings: following administration in vivo
HIV = settings: 100 nM Peptide T; cited from earlier work
gp120 = settings: rat hippocampal membranes; cited from earlier work
Neopterin = test: Serum neopterin by RIA in patients with HIV disease; format: in vivo, human; settings: one line per patient with HIV disease
Excerpt: (§1) However, neopterin levels were elevated prior to Peptide T administration whereas serum IL-1 levels were normal.

allogeneic PBMC = test: Two way MLR (Example 9); format: cell-based, human; settings: without Peptide T 1365 ± 335
Method: A two way MLR was performed using 10^5 allogeneic PBMC (cpm of A = 142 ± 86, B = 148 ± 84) cocultured in 200 µl of media as described in Table III.
Peptide T given on the first day of an MLR will inhibit allogeneic induced proliferation of PBMC (Table IV).

[4] = patients with AIDS; Phase I (USC) and Phase II (Fenway Clinic); cited from earlier work
IL-1 = test: Serum IL-1 by RIA in patients with HIV disease; format: in vivo, human; settings: one line per patient with HIV disease
Excerpt: as §1

[5] = test system: mouse foetal hippocampal neurons; settings: cited from earlier work
LPS = test: LPS-induced inflammation in mice (Example 5); format: in vivo, balb/c mice; design: key: indicated on a scale of (-) to (+++); indicated on a scale of (-) to (+++); indicated on a scale of (-) to (+++)
Method: Normal balb/c mice (female, 12 weeks) were administered LPS (250 µg, E. coli K-235, Sigma cat. no. L-2018) at time zero. One group of mice (50 animals) were then treated at 30 minutes intervals by i.p. injections of bovine serum albumin (BSA) (Sigma cat. no. 6793) dissolved in pyrogen-free, sterile, isotonic water (2.5 mg BSA per animal per injection, each injection containing 100 µl).
The second group of mice (50 animals) were treated at 30 minutes intervals by i.p. injections of Peptide T (Carlbiotech A/S batch 109401) dissolved in pyrogen-free, sterile, isotonic water (2.5 mg Peptide T per animal per injection, each injection 100 µl).
Glucose levels were determined on blood samples after 3 hours. Subjective parameters such as secretion from the eye, diarrhoea and general well being are indicated on a scale of (-) to (+++).

PBMC [6] = test: Mixed lymphocyte reaction (Example 13); format: cell-based, human
[7] = t3hrs, LPS 250 µg, 2.5 mg Peptide T i.p. at 30 minutes intervals

C[C@@H](N)C(=O)N[C@@H](CO)C(=O)N[C@H](C(=O)N[C@H](C(=O)N[C@H](C(=O)N[C@@H](CC(N)=O)C(=O)N[C@@H](Cc1ccc(O)cc1)C(=O)N[C@H](C(N)=O)[C@@H](C)O)[C@@H](C)O)[C@@H](C)O)[C@@H](C)O [Peptide T, D-Ala-Ser-Thr-Thr-Thr-Asn-Tyr-Thr-NH2]
malaise ([1]; 4 and 8 weeks): statistacally significant | forgetfulness and slowness in thinking ([1]; human, in vivo): trend towards improvement | Mean improvements in measures of energy ([1]; week 12, all three instruments): exceeded 2 standard deviations | physical discomfort, mental health and health distress (MS-modified MOS-HIV) ([1]; weeks 4, 8 and 12): either a trend or statistically significant improvement | energy, general quality of life, well-being and unweighted summary score (MS-modified MOS-HIV) ([1]; weeks 4, 8 and 12 vs baseline, two-tailed paired t-tests): Improvement was statistically significant | activation of human neutrophils by TNF (human neutrophils): inhibits activation of human neutrophils by TNF | lymphocytes responding to recall antigen (MMR), antibodies to CD3 or the superantigens SEB and TSST-1 (PBMC [2]): negligible effects | peak plasma concentrations [3]: 55 nM | reduction of reverse transcriptase (HIV): ninefold reduction | concentrations that inhibit the binding of radiolabelled gp120 (gp120): 0.1 nM | [Neopterin] (Neopterin; Pre-Peptide T (baseline)): 47.3 ± 0.8 nM and 27.8 ± 0.8 nM and 13.15 ± 2.85 nM and 52.0 ± 4.0 nM | [Neopterin] (Neopterin; post-Peptide T): 32.5 ± 3.5 nM and 19.75 ± 0.25 nM and 8.9 ± 0.6 nM and 16.85 ± 0.05 nM | cpm ± SD (allogeneic PBMC; Peptide T 10^-0 mol/l): 764 ± 77 cpm | cpm ± SD (allogeneic PBMC; Peptide T 10^-5 mol/l): 649 ± 263 cpm | cpm ± SD (allogeneic PBMC; Peptide T 10^-7 mol/l): 534 ± 108 cpm | cpm ± SD (allogeneic PBMC; Peptide T 10^-11 mol/l): 681 ± 222 cpm | cpm ± SD (allogeneic PBMC; Peptide T 10^-13 mol/l): 235 ± 4 cpm | cpm ± SD (allogeneic PBMC; Peptide T 10^-15 mol/l): 371 ± 117 cpm | cpm ± SD (allogeneic PBMC; Peptide T 10^-17 mol/l): 672 ± 261 cpm | HIV-induced neurocognitive impairment [4]: improvement | [IL-1] (IL-1; post-Peptide T): 3.8 ± 0.12 fmol/100µl and 4.2 ± 0.07 fmol/100µl and 4.6 ± 0.11 fmol/100µl and 4.7 ± 0.05 fmol/100µl and 4.2 ± 0.02 fmol/100µl and 4.2 ± 0.26 fmol/100µl and 4.33 ± 0.003 fmol/100µl and 4.6 ± 0.02 fmol/100µl | [IL-1] (IL-1; pre-Peptide T (baseline)): 3.5 ± 0.14 fmol/100µl and 5.23 ± 0.17 fmol/100µl and 4.1 ± 0.01 fmol/100µl and 4.1 ± 0.03 fmol/100µl and 3.7 ± 0.03 fmol/100µl and 4.2 ± 0.14 fmol/100µl and 3.9 ± 0.13 fmol/100µl and 4.35 ± 0.06 fmol/100µl | neurotoxicity of CSF from a patient with AIDS dementia ([5]; CSF at 1:100,000 dilution, 44-49% killing without peptide): inhibited | gp120-induced neurotoxicity ([5]; cultures of mouse foetal hippocampal neurons): completely, antagonised | General well being (LPS; t0 (baseline)): - | Secretion from eyes (LPS; t0 (baseline)): - | Diarrhoea (LPS; t0 (baseline), LPS 250 µg at time zero): - | Diarrhoea (LPS; [7]): + | General well being (LPS; [7]): + | Secretion from eyes (LPS; [7]): + | growth of lymphocytes in a mixed lymphocyte reaction (PBMC [6]): did not affect
